Data as given in patent US12697313B2, “Methods of treating anemia using formoterol or a pharmaceutically acceptable salt thereof” (Dana-Farber Cancer Institute, Inc., priority 2022, dated 2026).
“Also recorded” adds a separate entry of the source.

What was measured:
primary human HSPCs = test: Methylcellulose colony-formation assay, primary human HSPCs; type: cell-based; conditions: n=4 healthy donors; vs DMSO; FIG. 4
Experimental: Given the involvement of β2-AR in erythropoiesis, it was hypothesized that administration of long-acting selective β2-AR agonist FF might promote erythroid differentiation. To address this, primary human HSPCs were treated with varying doses of FF (Selleckchem). […] To ascertain if FF administration plays a role further upstream in the erythroid differentiation pathway, methylcellulose colony-formation assays were performed.
(§1) After genome editing, primary human HSPCs were washed twice with 1× PBS and mixed with semi-solid methylcellulose medium (H4034 StemCell Technologies) by brief vortexing. Cells were plated at a density of 2000 per well in a 6-well plate followed by incubation in a humidified chamber at 37° C. for 14 days. Imaging of the colonies was performed using EVOS M5000 Imaging system® (ThermoFisher Scientific). The colony-forming cells were then collected by triturating the wells using staining buffer and multi-color flow cytometry was performed as previously described (Li et al. (2014) Blood 124: 3636-3645).

RIOK2 KD HSPCs = test: Erythroid differentiation in RIOK2 knockdown HSPCs; type: cell-based, human; conditions: RIOK2 KD HSPCs vs DMSO; FIG. 6B, FIG. 45
Text: (§2) Since RIOK2-deficient primary human HSPCs effectively model impaired erythropoiesis leading to anemia (Ghosh et la. (2022) Nat Immunol 23: 109-121), it was next investigated whether treatment with formoterol fumarate (FF) alleviates anemia in this in vitro model. To address this, RIOK2-proficient and deficient primary human HSPCs via CRISPR-Cas9 based genome-editing were generated (FIG. 6A), as previously described (Ghosh et al. (2022) Nat Immunol 23: 109-121). […] Since RPS14 deletion is reported to be MDS-genic (Ebert et al. (2008) Nature 451: 335-339; Schneider et al. (2016) Nat Med 22: 288-297), RPS14 was similarly knocked down in primary human HSPCs (FIG. 6C).
(§3) Primary human HSPCs were genome-edited, as previously described (Ghosh, S., Raundhal, M., Myers, S. A., Carr, S. A., Chen, X., Petsko, G. A., and Glimcher, L. H. (2022). Identification of RIOK2 as a master regulator of human blood cell development. Nat Immunol 23, 109-121).

RPS14 KD HSPCs = test: Erythroid differentiation in RPS14 knockdown HSPCs; type: cell-based, human; conditions: RPS14 KD HSPCs vs DMSO; FIG. 6D, FIG. 46
Text: as §2
(§4) Next, to validate the specificity of FF for β2-adrenoreceptors, ADRB2 was knocked down in primary human HSPCs and treated with FF.
as §3

[1] = test system: MDS patient-derived bone marrow cells; test: Liquid erythroid differentiation culture of MDS patient-derived bone marrow cells (ex vivo); type: cell-based, human; conditions: for erythroid differentiation (CD235a): n=40 MDS patients
Text: (§5) These findings prompted further testing to determine whether administration of FF in MDS patient-derived bone marrow (BM) samples improves erythroid differentiation in an ex vivo setting. To explore this, cells isolated from BM aspirates of de-identified MDS patients were procured. Next, the MDS patient-derived BM cells were placed in liquid erythroid differentiation culture, as previously described (Khajuria et al. (2018) Cell 173: 90-103), with or without FF treatment. […] To further validate this observation, the impact of FF from another vendor (Sigma) was tested on MDS patient-derived cells. […] Next, CD34+ progenitors were FACS-sorted from the MDS patient-derived BM aspirates and seeded in semi-solid methylcellulose culture media with vehicle (DMSO) or FF treatment. […] Therefore, the FDA-approved drug formoterol fumarate could be repurposed to reverse anemia in a range of hematological disorders.
CD34+ primary human hematopoietic stem and progenitor cells (HSPCs) were obtained from Fred-Hutchinson Cancer Research center, Seattle, USA and cultured, as previously described. Formoterol fumarate was purchased from Selleckchem (#S2020) and Sigma (#F9552), dissolved (in DMSO) and stored as per manufacturer's instructions, and used at the final working concentrations as indicated. Frozen BM aspirates from de-identified MDS patients were obtained using our IRB approved protocol (#21-632) from the Pasquarello tissue bank at DFCI.

naive wild-type mice = test: FF in naive wild-type mice without PHZ stress (FIG. 62 setup); type: in vivo; conditions: for % change in body weights: FIG. 63
APC KD HSPCs = test: Erythropoiesis in APC knockdown HSPCs; type: cell-based, human; conditions: FIG. 46
Text: as §3

mice = conditions: cited from earlier work
wild-type mice = test: FF oral gavage in wild-type mice at steady-state; type: in vivo
Text: N=5 mice per group. All comparisons were done w.r.t. vehicle treated (DMSO) controls.

ADRB2-deficient HSPCs = test: Erythroid differentiation in ADRB2-deficient HSPCs (specificity for β2-adrenoreceptors); type: cell-based, human; conditions: ADRB2 knocked down HSPCs; FIG. 6E-6F
Text: as §4, §3

[2] = test system: NUP98-HOXD13 transgenic mice; test: FF i.p. in MDS/AML mice (NUP98-HOXD13 transgenic); type: in vivo; conditions: 0.3 mg/kg thrice weekly i.p.
Experimental: FIG. 71A, FIG. 71B and FIG. 71C show FF treatment at a low dose of 0.3 mg/kg thrice weekly (i.p.) alleviates RBC parameters in PB of MDS/AML mice, such as RBCs, hemoglobin (Hb) and hematocrit (HCT%). * p<0.05, ** p <0.01, **** p<0.0001, ANOVA. n=5-7 mice per group. Veh: vehicle; LC: littermate control.

[3] = test system: MDS patient-derived BM progenitors; test: Semi-solid methylcellulose culture of MDS patient-derived BM progenitors; type: cell-based, human
Text: as §5
as §1, with “The colony-forming cells were then collected by triturating the wells using staining buffer and multi-color flow cytometry was performed as previously described (Li et al. (2014) Blood 124: 3636-3645).” left out

## COc1ccc(C[C@@H](C)NC[C@H](O)c2ccc(O)c(NC=O)c2)cc1.O=C(O)/C=C/C(=O)O [FF, (E)-but-2-enedioic acid;N-[2-hydroxy-5-[(1R)-1-hydroxy-2-[[(2R)-1-(4-methoxyphenyl)propan-2-yl]amino]ethyl]phenyl]formamide]
Primary human HSPCs
  BFU-E and CFU-E formation: significantly increased blast-forming unit-erythroid (BFU-E) and colony-forming unit-erythroid (CFU-E) formation; also recorded: enhances blast forming unit-erythroid (BFU-E) and colony forming unit-erythroid (CFU-E) formation
RIOK2 KD HSPCs
  erythroid differentiation (CD235a): stimulated erythropoiesis in RIOK2-knockdown (KD) HSPCs; also recorded: to levels comparable with basal erythropoiesis in control cells; also recorded: increases erythroid differentiation (CD235a) in RIOK2 KD HSPCs; also recorded: markedly rescues erythropoiesis
RPS14 KD HSPCs
  erythroid differentiation (CD235a): significantly increased erythroid differentiation in RPS14 KD HSPCs; also recorded: increases erythroid differentiation (CD235a) in RPS14 KD HSPCs; also recorded: moderately rescues erythropoiesis
[1]; 40 MDS patient-derived cells, FIG. 9
  myelopoiesis/megakaryopoiesis: does not affect myelopoiesis/megakaryopoiesis
[1]; FF from Selleckchem, FIG. 8A
  erythroid differentiation (CD235a): significantly enhanced erythroid differentiation in BM cells in the majority of MDS patients; also recorded: enhances erythroid differentiation in MDS patient-derived bone marrow cells
[1]; FF from Sigma, FIG. 8B
  erythroid differentiation (CD235a): boosted erythropoiesis in the majority of MDS patients; also recorded: enhances erythroid differentiation in MDS patient-derived bone marrow cells
Naive wild-type mice; 0.1/0.3/0.5 mg/kg
  % change in body weights: increases body weights
Naive wild-type mice; 0.1/0.3/0.5 mg/kg, FIG. 67A
  viability of BM progenitors: substantially increases
Naive wild-type mice; 0.1/0.3/0.5 mg/kg, FIG. 67B
  LS-K cells in the BM: substantially increases
Naive wild-type mice; 0.1/0.3/0.5 mg/kg, FIG. 68A-68B
  MEP and MkP in BM: significantly elevates megakaryocyte erythroid progenitors (MEP) and megakaryocytic progenitors (MkP)
Naive wild-type mice; 0.1/0.3/0.5 mg/kg, FIG. 70A-70C
  expression of erythroid genes EPOR, ASXL1, NFE2 in sorted erythroid progenitors: substantially increases the expression of erythroid genes
Naive wild-type mice; 0.1/0.3/0.5 mg/kg, FIG. 70D
  expression of ADRB2 in sorted erythroid progenitors: does not influence the expression of β2-AR-encoding gene ADRB2
Naive wild-type mice; 0.1 and 0.3 mg/kg groups
  % change in body weights: did not show statistical significance
Naive wild-type mice; 0.1 and 0.5 mg/kg groups, FIG. 64C
  HCT%: did not show statistical significance
Naive wild-type mice; FIG. 64
  RBC parameters (RBC numbers, Hb, HCT %) in peripheral blood: enhances and sustains RBC parameters
Naive wild-type mice; FIG. 65A, 65C
  WBC numbers and platelet counts: does not influence
Naive wild-type mice; FIG. 65B
  monocyte counts in peripheral blood: modestly impacts monocyte counts
Naive wild-type mice; FIG. 66A
  mitochondrial biogenesis in BMPs (MitoTracker staining): enhances mitochondrial biogenesis
Naive wild-type mice; FIG. 66B
  mitochondrial membrane potential in BMPs (TMRE staining): enhances mitochondrial membrane potential
Naive wild-type mice; FIG. 66C
  mitochondrial superoxide production in BMPs (MitoSox staining): significantly reduces mitochondrial superoxide production
APC KD HSPCs
  erythropoiesis: moderately rescues erythropoiesis
mice; literature
  muscle structure and function after injury: improve muscle structure and function after injury
mice; mice (Gehrig et al. 2010; Ryall et al. 2008)
  muscle mass: increase muscle mass
wild-type mice; 14 days of daily o.g., FIG. 48
  RBC parameters (HCT %, RBC numbers, Hb) in peripheral blood: increases RBC parameters
wild-type mice; 14 days of daily o.g., FIG. 49
  WBCs, monocytes and platelets in peripheral blood: does not affect WBC parameters
wild-type mice; 14 days of daily o.g., FIG. 50
  mitochondrial membrane potential (TMRE staining) in BMPs: increases viability and mitochondrial membrane potential
  viability of bone marrow progenitors (BMPs): increases viability and mitochondrial membrane potential
wild-type mice; 14 days of daily o.g., FIG. 51
  MEP and MkP: increases megakaryocyte erythroid progenitors (MEP) and megakaryocytic progenitors (MkP)
  granulocyte monocyte progenitors (GMP): does not affect granulocyte monocyte progenitors (GMP)
wild-type mice; o.g., steady state, FIG. 53
  % change in body weights: mildly increases body weights
ADRB2-deficient HSPCs
  erythroid differentiation: failed to induce erythropoiesis in ADRB2-deficient HSPCs; also recorded: inability of FF to induce erythroid differentiation
[2]; FIG. 71
  RBC parameters (RBCs, Hb, HCT%) in PB: elevates RBC parameters
[2]; FIG. 72A-72B
  platelets and WBCs in peripheral blood: has no impact
[2]; FIG. 72C
  apoptosis (Annexin V staining) in the bone marrow: has no impact
[2]; FIG. 73A
  erythroid progenitors in the BM: elevates erythroid progenitors
[2]; FIG. 73B-73C
  GMP and MkP in the BM: does not affect
[3]; FIG. 11D
  viability, myelopoiesis (CFU-GM), megakaryopoiesis (CFU-Mk): produced insignificant effects on the viability, myeloid and megakaryocytic differentiation; also recorded: does not affect viability, myelopoiesis (CFU-GM) or megakaryopoiesis (CFU-Mk)
[3]; n=23 MDS patients, vs DMSO, FIG. 11A-11C
  erythroid progenitors BFU-E and CFU-E: significantly boosted both BFU-E and CFU-E formation; also recorded: enhances differentiation of erythroid progenitors in MDS patient-derived bone marrow cells
